Reference: patent US20150344957A1, “MONITORING TREATMENT OF HISTIOCYTOSIS WITH VEMURAFENIB AND DABRAFENIB” (TROVAGENE, INC., priority 2014, published 2015)
Entries after “also recorded” stand apart in the source; their conditions may differ.

System: BRAF V600E mutation in urinary cfDNA
Assay: Monitoring of BRAF V600E mutation in urinary cfDNA (droplet digital PCR) of treated LCH/ECD patients
Format: in vivo, human
Conditions: for detection of mutant BRAF V600E in urine cfDNA, treatment naive versus treated patient samples: FIG. 3, treated versus treatment-naive samples; for BRAF V600E mutation burden in urinary cfDNA over time on therapy: histiocytosis (LCH/ECD) patients, serial urine samples during treatment, FIG. 4-6
Description: Urinary cell-free (cf)DNA analysis was performed in all patients and plasma cfDNA analysis in 19/26 patients. Serial urinary samples in 10 BRAF V600E mutant samples were also obtained to track disease burden with therapy. Urine and plasma cfDNA were quantified by a droplet digital PCR (ddPCR; QX-100, BioRad).
A two-step assay design was developed for a 28-30 basepair footprint in the target mutant gene sequence. FIG. 1 summarizes the assay design, which includes a first preamplification step to increase the number of copies of a target mutant gene sequence relative to wild-type gene sequences that are present in the sample. The pre-amplification is conducted in the presence of a wild-type (non-mutant) suppressing “WT blocker” oligonucleotide that is complementary to the wild-type sequence (but not the mutant sequence) to decrease amplification of wild-type DNA. The pre-amplification is performed with primers that include adapters (or “tags”) at the 5′ end to facilitate amplification in the second step.
The second step is additional amplification with primers complementary to the tags on the ends of the primers used in the first step and a TaqMan (reporter) probe oligonucleotide complementary to the mutant sequence for quantitative, digital droplet PCR.

Row | SMILES | detection of mutant BRAF V600E in urine cfDNA, treatment naive versus treated patient samples | BRAF V600E mutation burden in urinary cfDNA over time on therapy | BRAF V600E mutation in urinary cfDNA after the end of treatment (one subject, end of treatment, FIG. 6)
1 | CCCS(=O)(=O)Nc1ccc(F)c(C(=O)c2c[nH]c3ncc(-c4ccc(Cl)cc4)cc23)c1F [vemurafenib, N-{3-[5-(4-Chlorophenyl)-1H-pyrrolo[2,3-b]pyridin-3-carbonyl]-2,4-difluorophenyl}propane-1-sulfonamide] | decreased detection of mutant BRAF V600E | a decrease in the mutation in urinary cfDNA; also recorded: decreased BRAF mutant allele burden with therapy | an increase, or “rebound,” in the amount of the mutation in urinary cfDNA
2 | CC(C)(C)c1nc(-c2cccc(NS(=O)(=O)c3c(F)cccc3F)c2F)c(-c2ccnc(N)n2)s1 [dabrafenib, N-{3-[5-(2-aminopyrimidin-4-yl)-2-tert-butyl-1,3-thiazol-4-yl]-2-fluorophenyl}-2,6-difluorobenzenesulfonamide] | decreased detection of mutant BRAF V600E | a decrease in the mutation in cfDNA during the course of treatment | 
